Experimental data reported in BigSolDB 2.1.

COc1ccc(C(=O)c2ccc(OC)cc2)cc1
solubility (mole fraction)
Conditions	in benzene	in ethanol	in ethyl acetate	in isobutanol	in isopropanol	in methanol	in methyl acetate	in n-butanol	in n-propanol	in n-propyl acetate
293.15 K	0.0123	0.00091	0.00908	0.00101	0.00079	0.00067	0.00958	0.00114	0.00114	0.00947
298.15 K	0.0149	0.00109	0.0111	0.00137	0.001	0.00081	0.0115	0.00164	0.00141	0.0112
303.15 K	0.018	0.00141	0.0129	0.00168	0.0013	0.00104	0.0138	0.00214	0.00177	0.0126
308.15 K	0.0221	0.00188	0.0155	0.00237	0.00193	0.00134	0.0166	0.00306	0.00224	0.0151
313.15 K	0.0278	0.0024	0.0189	0.00313	0.00241	0.00181	0.0204	0.0036	0.00314	0.0187
318.15 K	0.0338	0.00302	0.023	0.00404	0.00308	0.00219	0.0248	0.00457	0.00403	0.0229
323.15 K	0.041	0.00402	0.0284	0.00539	0.00423	0.00286	0.0311	0.00612	0.00538	0.0277
328.15 K	0.0504	0.00516	0.0343	0.00718	0.00549	0.0037	0.0376	0.00824	0.00707	0.0329
333.15 K	0.063	0.00653	0.0408	0.00972	0.0075	0.00473	–	0.00996	0.00928	0.0406
